Data as given in US10052320B2, “Substituted quinoxalines as FGFR kinase inhibitors” (ASTEX THERAPEUTICS LIMITED, priority 2011, dated 2018).
Where two headings read alike, the source gives them in different places.

What was measured:
FGFR4 (h) = FGFR4 (h) (Homo sapiens, UniProt P22455); assay: FGFR4 (enzymatic assay), TR-FRET; type: biochemical; conditions: read-out: FGFR 4 pIC50 (converted)
Description: In a final reaction volume of 30 μL, FGFR4 (h) (60 ng/ml) was incubated with 50 mM HEPES pH 7.5, 6 mM MnCl2, 1 mM DTT, 0.1 mM Na3VO4, 0.01% Triton-X-100, 500 nM Btn-Flt3 and 5 μM ATP in the presence of compound (1% DMSO final). […] Time-Resolved Fluorescence Resonance Energy Transfer (TR-FRET) signal (ex340 nm. Em 620 nm, em 655 nm) was measured afterwards and results are expressed in RFU (Relative Fluorescence Units).

KDR (h) (VEGFR2) = KDR (h) (VEGFR2) (Homo sapiens, UniProt P35968); assay: KDR (VEGFR2) (enzymatic assay), TR-FRET; type: biochemical
Sequence of KDR (h) (VEGFR2) (P35968 20-1356): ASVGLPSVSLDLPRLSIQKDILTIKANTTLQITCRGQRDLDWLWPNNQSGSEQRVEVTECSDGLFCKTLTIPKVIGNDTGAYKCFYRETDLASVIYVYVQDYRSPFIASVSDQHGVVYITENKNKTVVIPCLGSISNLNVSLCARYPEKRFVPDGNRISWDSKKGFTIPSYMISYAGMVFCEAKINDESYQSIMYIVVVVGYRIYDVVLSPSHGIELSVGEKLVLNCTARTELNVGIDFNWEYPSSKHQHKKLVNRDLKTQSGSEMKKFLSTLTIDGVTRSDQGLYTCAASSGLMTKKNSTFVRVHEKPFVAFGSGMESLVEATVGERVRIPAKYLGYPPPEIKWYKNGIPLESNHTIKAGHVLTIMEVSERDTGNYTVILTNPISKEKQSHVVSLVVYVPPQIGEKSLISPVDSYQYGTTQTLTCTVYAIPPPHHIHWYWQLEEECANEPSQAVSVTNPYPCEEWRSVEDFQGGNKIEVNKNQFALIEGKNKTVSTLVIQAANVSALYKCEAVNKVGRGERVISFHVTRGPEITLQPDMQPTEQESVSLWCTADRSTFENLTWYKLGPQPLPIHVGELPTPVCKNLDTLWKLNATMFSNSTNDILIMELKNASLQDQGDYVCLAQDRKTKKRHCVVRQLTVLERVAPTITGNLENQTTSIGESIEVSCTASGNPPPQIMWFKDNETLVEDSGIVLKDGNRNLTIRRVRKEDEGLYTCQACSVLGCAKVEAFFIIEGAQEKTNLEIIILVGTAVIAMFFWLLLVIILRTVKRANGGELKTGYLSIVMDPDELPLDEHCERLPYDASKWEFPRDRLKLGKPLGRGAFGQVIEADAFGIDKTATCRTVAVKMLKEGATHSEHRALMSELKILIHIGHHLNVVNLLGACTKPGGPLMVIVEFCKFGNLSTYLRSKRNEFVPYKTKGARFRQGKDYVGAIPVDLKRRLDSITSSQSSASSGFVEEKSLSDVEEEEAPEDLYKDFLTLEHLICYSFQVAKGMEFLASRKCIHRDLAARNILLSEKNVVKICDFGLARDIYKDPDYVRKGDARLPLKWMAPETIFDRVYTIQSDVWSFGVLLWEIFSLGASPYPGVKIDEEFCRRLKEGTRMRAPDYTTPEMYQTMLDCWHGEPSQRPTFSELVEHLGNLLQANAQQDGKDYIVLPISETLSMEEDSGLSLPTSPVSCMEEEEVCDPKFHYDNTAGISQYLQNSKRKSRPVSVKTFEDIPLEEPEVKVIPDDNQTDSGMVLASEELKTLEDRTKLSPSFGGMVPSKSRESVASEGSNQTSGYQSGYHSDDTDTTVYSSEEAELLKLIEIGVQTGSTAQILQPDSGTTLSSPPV
Method in brief: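 TR-FRET readout (ex 340, em 620/655 nm) in RFU after EDTA stop with Eu-anti-phosphotyrosine and SA-XL665 for 60 min. The preceding 120-min room-temperature kinase step used 150 ng/ml KDR (h), 3 μM ATP, 500 nM biotinylated Flt3 peptide, MnCl2-containing HEPES buffer pH 7.5, 1% DMSO.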

[1] = system: Ba/F3-Flt3-transfected cells in the presence of 10 ng/ml murine IL3; assay: Ba/F3-Flt3 (plus IL3) cellular proliferation counterscreen, Alamar Blue; type: cell-based; conditions: Mus musculus, read-out: BAF3-FLT3 (PLUS IL3) 96 well pIC50 (converted)
[2] = system: Ba/F3-KDR-transfected cells in the presence of 10 ng/ml murine IL3; assay: Ba/F3-KDR (plus IL3) cellular proliferation counterscreen, Alamar Blue; type: cell-based; conditions: Mus musculus
Description: Ba/F3-KDR (Minus IL3 or Plus IL3) (Cellular Proliferation Assay)
[…] Cells were put in an incubator at 37° C. and 5% CO2. After 24 hours, 10 μl of Alamar Blue solution (0.5 mM K3Fe(CN)6, 0.5 mM KaFe(CN)6, 0.15 mM Resazurin and 100 mM Phosphate Buffer) was added to the wells, incubated for 4 hours at 37° C. and 5% CO2 before RFU's (Relative Fluorescence Units) (ex. 540 nm., em. 590 nm.) were measured in a flurorescence plate reader.
As a counterscreen the same experiment was performed in the presence of 10 ng/ml murine IL3.
In a 96 well plate, 180 μl cell culture medium (phenol red free RPMI-1640, 10% FBS, 2 mM L-Glutamine and 50 μg/ml Gentamycin) containing 10000 cells per well of Ba/F3-KDR-transfected cells were pipette and 20 μl of compound dilution in DMSO was added. Cells were put in an incubator at 37° C. and 5% CO2. After 24 hours, 40 μl of Alamar Blue solution (0.5 mM K3Fe(CN)6, 0.5 mM KaFe(CN)6, 0.15 mM Resazurin and 100 mM Phosphate Buffer) was added to the wells, incubated for 4 hours at 37° C. and 5% CO2 RFU's (Relative Fluorescence Units) (ex. 540 nm., em. 590 nm.) were measured in a flurorescence plate reader.

[3] = plus 10 ng/ml murine IL3, read-out: BAF3-KDR (PLUS IL3) 384 well pIC50 (converted)

Sequence of FGFR4 (h) (P22455 22-802): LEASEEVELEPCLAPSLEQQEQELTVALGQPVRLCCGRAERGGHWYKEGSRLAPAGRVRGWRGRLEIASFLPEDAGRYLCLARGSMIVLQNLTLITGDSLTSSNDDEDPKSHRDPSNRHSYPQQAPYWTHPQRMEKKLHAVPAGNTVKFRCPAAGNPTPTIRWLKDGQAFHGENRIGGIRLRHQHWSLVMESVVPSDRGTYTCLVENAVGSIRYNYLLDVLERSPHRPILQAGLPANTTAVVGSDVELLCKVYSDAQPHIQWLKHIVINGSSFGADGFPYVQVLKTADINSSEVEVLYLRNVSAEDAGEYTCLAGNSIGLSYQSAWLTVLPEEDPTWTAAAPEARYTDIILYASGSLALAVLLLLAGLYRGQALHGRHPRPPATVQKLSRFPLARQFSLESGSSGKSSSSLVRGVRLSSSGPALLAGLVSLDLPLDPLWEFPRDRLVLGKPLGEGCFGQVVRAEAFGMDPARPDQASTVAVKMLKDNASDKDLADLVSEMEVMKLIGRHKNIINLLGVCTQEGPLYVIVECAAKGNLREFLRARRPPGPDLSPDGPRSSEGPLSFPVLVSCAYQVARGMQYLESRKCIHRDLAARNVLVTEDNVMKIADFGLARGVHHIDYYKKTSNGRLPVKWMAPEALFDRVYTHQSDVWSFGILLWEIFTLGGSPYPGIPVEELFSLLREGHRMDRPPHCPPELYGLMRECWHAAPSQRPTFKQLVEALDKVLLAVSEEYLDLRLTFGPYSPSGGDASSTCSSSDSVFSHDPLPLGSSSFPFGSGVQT

COc1cc(OC)cc(N(CC2CC2)c2ccc3ncc(C#Cc4cncn4C)nc3c2)c1 [Compound 22]
IC50 (FGFR4 (h)): 275 nM | IC50 (KDR (h) (VEGFR2)): 1660 nM | IC50 ([1]; plus IL3, 96 well): > 10000 nM

COc1cc(OC)cc(N(CC2CC2)c2ccc3ncc(C(=O)Nc4cncn4C)nc3c2)c1 [Compound 27]
IC50 (FGFR4 (h)): > 10000 nM | IC50 (KDR (h) (VEGFR2)): > 10000 nM | IC50 ([1]; plus 10 ng/ml murine IL3): > 10000 nM

COc1cc(OC)cc(N(CC2CC2)c2ccc3ncc(NC(=O)c4ccc(F)cc4)nc3c2)c1 [Compound 28]
IC50 (FGFR4 (h)): > 10000 nM | IC50 (KDR (h) (VEGFR2)): > 10000 nM | IC50 [2, 3]: > 10000 nM | IC50 ([1]; plus 10 ng/ml murine IL3): > 10000 nM

COc1cc(OC)cc(N(CC2CC2)c2ccc3ncc(-c4ccnc(N5CCN(C)CC5)c4)nc3c2)c1 [Compound 37]
IC50 (FGFR4 (h)): 302 nM | IC50 (KDR (h) (VEGFR2)): 1380 nM | IC50 ([1]; plus IL3, 96 well): ~4680 nM

COc1cc(OC)cc(N(CC2CC2)c2ccc3ncc(-c4c[nH]cn4)nc3c2)c1 [Compound 39]
IC50 (FGFR4 (h)): 145 nM | IC50 (KDR (h) (VEGFR2)): 2950 nM | IC50 [2, 3]: > 10000 nM | IC50 ([1]; plus 10 ng/ml murine IL3): > 10000 nM

COc1cc(OC)cc(N(CC2CC2)c2ccc3ncc(N4CCN(CCO)CC4)nc3c2)c1 [Compound 49]
IC50 (FGFR4 (h)): 1580 nM | IC50 (KDR (h) (VEGFR2)): 3980 nM | IC50 ([1]; plus 10 ng/ml murine IL3): > 10000 nM

COc1cc(OC)cc(N(CC2CC2)c2ccc3ncc(N4CCOCC4)nc3c2)c1 [Compound 63]
IC50 (FGFR4 (h)): 2290 nM | IC50 (KDR (h) (VEGFR2)): 6610 nM | IC50 ([2]; read-out: BAF3-KDR (PLUS IL3) 384 well pIC50, plus IL3, 384 well, read-out: BAF3-KDR (PLUS IL3) 284 well pIC50 (converted)): > 10000 nM | IC50 ([1]; plus IL3, 96 well): > 10000 nM

COc1cc(OC)cc(N(CC2CC2)c2ccc3ncc(N4CCN(C)CC4)nc3c2)c1 [Compound 64]
IC50 (FGFR4 (h)): 2880 nM | IC50 (KDR (h) (VEGFR2)): 5500 nM | IC50 ([1]; plus IL3, 96 well): > 10000 nM

COc1cc(OC)cc(N(CC2CC2)c2ccc3ncc(-c4nnc(C)o4)nc3c2)c1 [Compound 85]
IC50 (FGFR4 (h)): 1480 nM | IC50 (KDR (h) (VEGFR2)): 8320 nM | IC50 ([1]; plus IL3, 96 well): > 10000 nM

COc1cc(OC)cc(N(CC2CC2)c2ccc3ncc(-c4ccc5[nH]ccc5c4)nc3c2)c1 [Compound 86]
IC50 (FGFR4 (h)): 3980 nM | IC50 (KDR (h) (VEGFR2)): > 10000 nM | IC50 ([1]; plus IL3, 96 well): > 10000 nM

COc1cc(OC)cc(N(CC2CC2)c2ccc3ncc(-c4cnc5[nH]ccc5c4)nc3c2)c1 [Compound 88]
IC50 (FGFR4 (h)): > 10000 nM | IC50 (KDR (h) (VEGFR2)): > 10000 nM | IC50 ([1]; plus IL3, 96 well): > 10000 nM

COc1cc(OC)cc(N(CC2CC2)c2ccc3ncc(-c4ccnc(N5CCOCC5)c4)nc3c2)c1 [Compound 90]
IC50 (FGFR4 (h)): > 10000 nM | IC50 (KDR (h) (VEGFR2)): > 10000 nM | IC50 ([1]; plus IL3, 96 well): > 10000 nM

COc1cc(OC)cc(N(CC2CC2)c2ccc3ncc(-c4cccc(N5CCOCC5)c4)nc3c2)c1 [Compound 92]
IC50 (FGFR4 (h)): 2400 nM | IC50 (KDR (h) (VEGFR2)): 1950 nM | IC50 ([1]; plus 10 ng/ml murine IL3): > 10000 nM

COc1cc(OC)cc(N(CC2CC2)c2ccc3ncc(C(=O)N4CCC4)nc3c2)c1 [Compound 93]
IC50 (FGFR4 (h)): > 10000 nM | IC50 (KDR (h) (VEGFR2)): > 10000 nM | IC50 ([1]; plus 10 ng/ml murine IL3): > 10000 nM

COc1cc(OC)cc(N(CC2CC2)c2ccc3ncc(-n4cccn4)nc3c2)c1 [Compound 95]
IC50 (FGFR4 (h)): > 10000 nM | IC50 (KDR (h) (VEGFR2)): > 10000 nM | IC50 ([1]; plus 10 ng/ml murine IL3): > 10000 nM

COc1cc(OC)cc(N(CCO)c2ccc3ncc(-c4ccc(N5CCN(C)CC5)nc4)nc3c2)c1 [Compound 163]
IC50 (FGFR4 (h)): 120 nM | IC50 (KDR (h) (VEGFR2)): 355 nM | IC50 [2, 3]: 7590 nM

COc1cc(OC)cc(N(CCO)c2ccc3ncc(-c4ccc(N5CCNCC5)nc4)nc3c2)c1 [Compound 165]
IC50 (FGFR4 (h)): 28.8 nM | IC50 (KDR (h) (VEGFR2)): 129 nM | IC50 [2, 3]: > 10000 nM

COc1cc(OC)cc(N(CCO)c2ccc3ncc(-c4ccc(N5CCNCC5)cc4)nc3c2)c1 [Compound 166]
IC50 (FGFR4 (h)): 7.24 nM | IC50 (KDR (h) (VEGFR2)): 23.4 nM | IC50 [2, 3]: 6030 nM

COc1cc(OC)cc(N(CCNC(C)C)c2ccc3ncc(-n4cnc(COC(C)=O)c4)nc3c2)c1 [Compound 167]
IC50 (FGFR4 (h)): 31.6 nM | IC50 (KDR (h) (VEGFR2)): 251 nM | IC50 [2, 3]: > 10000 nM

COc1cc(OC)cc(N(CCNC(C)C)c2ccc3ncc(-c4ccc(N5CCOCC5)nc4)nc3c2)c1 [Compound 168]
IC50 (FGFR4 (h)): 8.32 nM | IC50 (KDR (h) (VEGFR2)): 63.1 nM | IC50 [2, 3]: 7080 nM

COc1cc(OC)cc(N(CCN2CCOCC2)c2ccc3ncc(-c4ccc(N)nc4)nc3c2)c1 [Compound 169]
IC50 (FGFR4 (h)): 53.7 nM | IC50 (KDR (h) (VEGFR2)): 126 nM | IC50 [2, 3]: > 10000 nM

COc1cc(OC)cc(N(CCNC(C)C)c2ccc3ncc(-c4ccc(N5CCN(C)CC5)nc4)nc3c2)c1 [Compound 170]
IC50 (FGFR4 (h)): 28.8 nM | IC50 (KDR (h) (VEGFR2)): 135 nM | IC50 [2, 3]: > 10000 nM

COc1cc(OC)cc(N(CCO)c2ccc3ncc(/C(C)=N/OC(C)(C)C)nc3c2)c1 [Compound 171]
IC50 (FGFR4 (h)): 871 nM | IC50 (KDR (h) (VEGFR2)): > 1000 nM | IC50 [2, 3]: > 10000 nM

COC(=O)C1CCCN1c1cnc2ccc(N(CCO)c3cc(OC)cc(OC)c3)cc2n1 (stereo not drawn) [Compound 172]
IC50 (FGFR4 (h)): 417 nM | IC50 (KDR (h) (VEGFR2)): > 1000 nM | IC50 [2, 3]: > 10000 nM

COc1cc(OC)cc(N(CCO)c2ccc3ncc(C4=CCN(C(=O)OC(C)(C)C)C4)nc3c2)c1 [Compound 173]
IC50 (FGFR4 (h)): 100 nM | IC50 (KDR (h) (VEGFR2)): 479 nM | IC50 [2, 3]: > 10000 nM

COc1cc(OC)cc(N(CCO)c2ccc3ncc(C4=CCN(C(=O)OC(C)(C)C)CC4)nc3c2)c1 [Compound 178]
IC50 (FGFR4 (h)): 56.2 nM | IC50 (KDR (h) (VEGFR2)): > 1000 nM | IC50 [2, 3]: > 10000 nM

COc1cc(OC)cc(N(CCNC(C)C)c2ccc3ncc(C(=O)N4CCN(C)CC4)nc3c2)c1 [Compound 179]
IC50 (FGFR4 (h)): > 1000 nM | IC50 (KDR (h) (VEGFR2)): 77.6 nM | IC50 [2, 3]: > 10000 nM

COc1cc(OC)cc(N(CCNC(C)C)c2ccc3ncc(C(=O)N4CCCCC4)nc3c2)c1 [Compound 180]
IC50 (FGFR4 (h)): 977 nM | IC50 (KDR (h) (VEGFR2)): 191 nM | IC50 [2, 3]: > 10000 nM

COc1cc(OC)cc(N(CCNC(C)C)c2ccc3ncc(C(=O)N4CCOCC4)nc3c2)c1 [Compound 181]
IC50 (FGFR4 (h)): > 1000 nM | IC50 (KDR (h) (VEGFR2)): > 1000 nM | IC50 [2, 3]: > 10000 nM

COc1cc(OC)cc(N(CCNC(C)C)c2ccc3ncc(C(=O)NCCCN4CCCCC4)nc3c2)c1 [Compound 182]
IC50 (FGFR4 (h)): 603 nM | IC50 (KDR (h) (VEGFR2)): 112 nM | IC50 [2, 3]: > 10000 nM

COc1cc(OC)cc(N(CC#Cc2ncccc2OC)c2ccc3ncc(-c4cccnc4)nc3c2)c1 [Compound 183]
IC50 (FGFR4 (h)): 427 nM | IC50 (KDR (h) (VEGFR2)): > 1000 nM | IC50 [2, 3]: > 10000 nM

COc1cc(OC)cc(N(CCO)c2ccc3ncc(C(=O)Nc4cnn(C)c4)nc3c2)c1 [Compound 184]
IC50 (FGFR4 (h)): 309 nM | IC50 (KDR (h) (VEGFR2)): > 1000 nM | IC50 [2, 3]: > 10000 nM

COc1cc(OC)cc(N(CCO)c2ccc3ncc(C4CCN(C(=O)OC(C)(C)C)CC4)nc3c2)c1 [Compound 185]
IC50 (FGFR4 (h)): > 1000 nM | IC50 (KDR (h) (VEGFR2)): > 1000 nM | IC50 [2, 3]: > 10000 nM

COc1cc(OC)cc(N(CCCO)c2ccc3ncc(-c4ccnc(C(=O)NCCOCCO)c4)nc3c2)c1 [Compound 186]
IC50 (FGFR4 (h)): 126 nM | IC50 (KDR (h) (VEGFR2)): 871 nM | IC50 [2, 3]: > 10000 nM

COc1cc(OC)cc(N(CCNC(C)C)c2ccc3ncc(-c4ccn[nH]4)nc3c2)c1 [Compound 189]
IC50 (FGFR4 (h)): 7.24 nM | IC50 (KDR (h) (VEGFR2)): 126 nM | IC50 [2, 3]: > 10000 nM
